Data reported in patent US20150265661A1, “PREBIOTIC EFFECT OF SIALYLLACTOSE” (Trustees of Boston College, priority 2012, published 2015).

Columns and labels:
[1] = tested on: Escherichia coli W3110; assay: Growth (OD 600 nm) and pH of bacterial strains in ZMB1 with oligosaccharide as sole carbon source; type: cell-based; conditions: 48 h, FIG. 4
[2] = tested on: Clostridium perfringens ATCC 13124; type: cell-based; conditions: 48 h, sole carbon source, FIG. 4
[3] = tested on: Bifidobacteria sp. (ten strains of Table 2); assay: Growth (OD 600 nm) and pH of bacterial strains in ZMB1 with oligosaccharide as sole carbon source; type: cell-based, Bifidobacterium longum, Bifidobacterium infantis; conditions: for utilization as a primary carbon source by ten different Bifidobacteria: concentrations indicated in FIGS. 4 and 5; for numbers of bifidobacteria: in vitro fermentation, vs control; for prebiotic effects on Bifidobacteria strains: sialyllactose alone, FIG. 5

| Molecule | growth of E. coli [1] | pH in the culture of E. coli [1] | growth of C. perfringens [2] | pH in the culture of C. perfringens [2] | growth of the Bifidobacteria sp. ([3]; 48 h, sole carbon source (2'-FL 2 g/L, 3-FL 2 g/L, LDFT 1 g/L), vs control without substrate) | pH in the culture of Bifidobacteria ([3]; 48 h, sole carbon source, vs control without substrate) | utilization as a primary carbon source by ten different Bifidobacteria [3] | numbers of bifidobacteria [3] | prebiotic effects on Bifidobacteria strains [3] |
| --- | --- | --- | --- | --- | --- | --- | --- | --- | --- |
| lactodifucotetraose [LDFT] | no significant increase | no significant increase on its growth and decrease in pH | no significant increase | no significant increase on its growth and decrease in pH | significantly increase | decrease the pH | could utilize | significantly higher | – |
| CC(=O)N[C@H]1[C@H]([C@H](O)[C@H](O)CO)O[C@@](OC[C@H]2O[C@@H](O[C@H]3[C@H](O)[C@@H](O)[C@H](O)O[C@@H]3CO)[C@H](O)[C@@H](O)[C@H]2O)(C(=O)O)C[C@@H]1O [6′-SL, 6′-sialyllactose] | – | – | – | – | – | – | could utilize | significantly higher | showed prebiotic effects on some Bifidobacteria strains |
| CC(=O)N[C@H]1[C@H]([C@H](O)[C@H](O)CO)O[C@@](O[C@H]2[C@@H](O)[C@@H](CO)O[C@@H](O[C@H]3[C@H](O)[C@@H](O)C(O)O[C@@H]3CO)[C@@H]2O)(C(=O)O)C[C@@H]1O (some centres unmarked) [3′-SL, 3′-sialyllactose] | – | – | – | – | – | – | could utilize | significantly higher | showed prebiotic effects on some Bifidobacteria strains |
